One assay has as its system tumour growth. As to conditions: cited from earlier work.
In a further assay the test system is OCI-AML3 cells. As to the kind of experiment: Induction of apoptosis by cleaved caspase-3 cytometry. The class given is cell-based. The following applies: 0.1 μM COMPOUND 1 with 1 μM ASTX660 and 1 ng/ml TNF-alpha, 72 h.
The next assay deals with SJSA-1. Nature of the assay: Protocol B: CellTiter-Glo cell viability assay.
The next assay has as its system SN40R2. Nature of the assay: Protocol B: CellTiter-Glo cell viability assay. As to conditions: read-out: SN40R2 (Protocol B) % inhibition at 10, Protocol B. (In general: Cellular ATP, detected with luciferase, serves as a proxy for viable cell number.)
The test system of assay [1] is SN40R2 (p53 mutated, MDM2 amplified osteosarcoma). As to the kind of experiment: Protocol A: SRB growth inhibition assay. The following applies: read-out: SN40R2 IC50 (μM) (Protocol A).
In another assay the test system is human leukaemia models. The following applies: mice; by inducing MDM2 degradation; cited from earlier work.
A further assay has as its system cancer cell lines. The following applies: cited from earlier work.
In assay [2] the test system is multiple myeloma (MM) cells. As to conditions: in vitro and ex vivo; cited from earlier work.
[3] abbreviates: read-out: SJSA1 IC50 (μM) (Protocol B), Protocol B.
Setting [4] is: Homo sapiens, SJSA-1, read-out: SJSA1 IC50 (μM) (Protocol B), Protocol B.

Where two headings read alike, the source gives them in different places.

Turning to `COc1cc(C(N)=O)ccc1NC(=O)[C@@H]1N[C@@H](CC(C)(C)C)C2(C(=O)Nc3cc(Cl)ccc32)[C@H]1c1cccc(Cl)c1F` (some centres unmarked) [RO-8994], in the assay with tumour growth, the tumour growth inhibition result is given as “inhibit tumour growth”.

Consider `C[C@@H]1CN(CC(=O)N2CC(C)(C)c3nc(CO)c(Cc4ccc(F)cc4)cc32)[C@@H](CN2CCOC[C@H]2C)CN1` [ASTX660, 1-{6-[(4-fluorophenyl)methyl]-5-(hydroxymethyl)-3,3-dimethyl-1H,2H,3H-pyrrolo[3,2-b]pyridin-1-yl}-2-[(2R,5R)-5-methyl-2-{[(3R)-3-methylmorpholin-4-yl]methyl}piperazin-1-yl]ethan-1-one, reference compound], for which the “level of apoptosis (cleaved caspase-3)” value in the assay on OCI-AML3 cells is “sensitises the OCI-AML3 line to apoptosis induction by COMPOUND 1”.

Turning to `CCC(O)(CN1CCN(C)CC1)c1cc(F)c2c(c1)C(=O)N(Cc1ncc(Cl)cn1)[C@@]2(O[C@H]1CCOC1)c1ccc(Cl)cc1` (stereo partly drawn) [Example 522, (3R)-3-(4-chlorophenyl)-2-[(5-chloropyrimidin-2-yl)methyl]-4-fluoro-6-[2-hydroxy-1-(4-methylpiperazin-1-yl)butan-2-yl]-3-[(3S)-oxolan-3-yloxy]-2,3-dihydro-1H-isoindol-1-one], the IC50 in the assay with SJSA-1 (setting [3]) amounted to 0.048 µM. Further, the inhibition at 10 µM with SN40R2 came out at 24%.

On to `CC(O)(c1cc(F)c2c(c1)C(=O)N(Cc1ncc(Cl)cn1)[C@@]2(OCC1(CO)CC1)c1ccc(Cl)cc1)[C@H]1CC[C@H](O)CC1` (stereo partly drawn) [Example 401, (3R)-3-(4-chlorophenyl)-2-[(5-chloropyrimidin-2-yl)methyl]-4-fluoro-6-{1-hydroxy-1-[trans-4-hydroxycyclohexyl]ethyl}-3-{[1-(hydroxymethyl)cyclopropyl]methoxy}-2,3-dihydro-1H-isoindol-1-one], for which the IC50 in the assay with SJSA-1 (setting [3]) is 0.0098 µM. Moreover, the inhibition at 10 µM in the assay on SN40R2 is 6%.

As to `CCC(O)(c1cc(F)c2c(c1)C(=O)N(Cc1ccc(C#N)cn1)[C@@]2(O[C@H]1CCOC1)c1ccc(Cl)cc1)C1(F)CCOCC1` (stereo partly drawn) [Example 446, 6-{[(1R)-1-(4-chlorophenyl)-7-fluoro-5-[1-(4-fluorooxan-4-yl)-1-hydroxypropyl]-3-oxo-1-[(3S)-oxolan-3-yloxy]-2,3-dihydro-1H-isoindol-2-yl]methyl}pyridine-3-carbonitrile], the half-inhibitory concentration (IC50) in assay [1] came out at 29 µM; in the assay on SJSA-1 (setting [3]) it was 0.023 µM.

Take `CCC(O)(c1cc(F)c2c(c1)C(=O)N(Cc1ncc(Cl)cc1O)[C@@]2(OCCO)c1ccc(Cl)cc1)c1cn(C)cn1` (stereo partly drawn) [Example 443, (3R)-2-[(5-chloro-3-hydroxypyridin-2-yl)methyl]-3-(4-chlorophenyl)-4-fluoro-6-[1-hydroxy-1-(1-methyl-1H-imidazol-4-yl)propyl]-3-(2-hydroxyethoxy)-2,3-dihydro-1H-isoindol-1-one]: the IC50 is 38 µM in assay [1] and 0.093 µM in the assay with SJSA-1 (setting [4]). Moreover, the inhibition at 10 µM in the assay with SN40R2 worked out at 3%.

Regarding `O=C(O)C(F)(F)F.O=C1CCC(N2Cc3c(C#CCCCNC(=O)c4ccc(NC(=O)[C@@H]5NC6(CCCCC6)[C@@]6(C(=O)Nc7cc(Cl)ccc76)[C@H]5c5cccc(Cl)c5F)cc4)cccc3C2=O)C(=O)N1` (some centres unmarked) [LE-004], the “growth inhibition in human leukaemia models” value in the assay on human leukaemia models is “efficiently inhibited growth”.

Consider `CCC(O)(c1cc(F)c2c(c1)C(=O)N(Cc1ccc(C#N)cn1)[C@@]2(OCC1(F)COC1)c1ccc(Cl)cc1)c1cn(C)cn1` (stereo partly drawn) [Example 435, 6-{[(1R)-1-(4-chlorophenyl)-7-fluoro-1-[(3-fluorooxetan-3-yl)methoxy]-5-[1-hydroxy-1-(1-methyl-1H-imidazol-4-yl)propyl]-3-oxo-2,3-dihydro-1H-isoindol-2-yl]methyl}pyridine-3-carbonitrile], for which, in the assay on SJSA-1 (setting [4]), the IC50 came out at 0.015 µM. Also, the inhibition at 10 µM with SN40R2 was found to be 0%.

In the case of `CCC(O)(c1cc(F)c2c(c1)C(=O)N(Cc1ccc(C#N)cn1)[C@@]2(O[C@H]1CCOC1)c1ccc(Cl)cc1)C1(F)CCOCC1` (stereo partly drawn) [Example 445, 6-{[(1R)-1-(4-chlorophenyl)-7-fluoro-5-[1-(4-fluorooxan-4-yl)-1-hydroxypropyl]-3-oxo-1-[(3S)-oxolan-3-yloxy]-2,3-dihydro-1H-isoindol-2-yl]methyl}pyridine-3-carbonitrile], the inhibition at 10 µM in the assay with SN40R2 is 16%.

For `CC(C)(C)C[C@@H]1N[C@@H](C(=O)N[C@H]2CC[C@H](O)CC2)[C@H](c2cccc(Cl)c2F)[C@]12C(=O)Nc1cc(Cl)ccc12` [MI-773], the cell growth inhibition result in the assay on cancer cell lines is listed as “potently inhibits cell growth”.

Turning to `c1ccc2c(CCNc3ccc(Nc4ccncc4)cc3)c[nH]c2c1` [JNJ 26854165], the “activity against multiple myeloma (MM) cells” value in assay [2] was “potent activity”.

Usually IC50 stands for the point on the concentration scale where inhibition reaches its midpoint. As usually defined, the inhibition is the share of the control response that was lost under treatment.

The values above are taken from patent US20230338337A1, “BIOMARKERS FOR CANCER THERAPY USING MDM2 ANTAGONISTS” (OTSUKA PHARMACEUTICAL CO., LTD., priority 2019, published 2023).
